Values of other authors as cited in PMC2747598 (Journal of the American Chemical Society, 2009).

Tested on: HeLa cells
Conditions: unconjugated complexes

Compound	Mode of cellular uptake
[Ru+2].c1ccc(-c2ccccn2)nc1.c1ccc(-c2ccccn2)nc1.c1ccc2nc3c4cccnc4c4ncccc4c3nc2c1 [Ru(bpy)2dppz^2+]	enter by passive diffusion and do not exhibit punctate staining
Ru(phen)2dppz^2+	enter by passive diffusion and do not exhibit punctate staining
Ru(phen)(bpy′)(dppz)^2+	enter by passive diffusion and do not exhibit punctate staining
